This passage reports IC50 results from patent publication US9556159B2, “Renin inhibitor” (MITSUBISHI TANABE PHARMA CORPORATION, priority 2012, dated 2017).

Structures are written as SMILES.

The target in the first test is T1, Recombinant human renin (Homo sapiens, UniProt P00797).
T1 sequence (P00797 67-406): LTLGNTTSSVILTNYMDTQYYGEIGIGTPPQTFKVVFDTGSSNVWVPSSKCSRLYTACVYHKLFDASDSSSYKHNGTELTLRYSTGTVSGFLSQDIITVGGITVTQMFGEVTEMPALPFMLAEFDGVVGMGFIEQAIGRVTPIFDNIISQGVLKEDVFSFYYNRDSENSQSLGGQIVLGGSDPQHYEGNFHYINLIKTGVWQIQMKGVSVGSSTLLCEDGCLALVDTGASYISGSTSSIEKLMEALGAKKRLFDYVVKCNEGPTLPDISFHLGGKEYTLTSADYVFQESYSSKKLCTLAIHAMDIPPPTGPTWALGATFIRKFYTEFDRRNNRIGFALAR
The experiment in a line: Inhibitory activity against human renin (fluorogenic peptide substrate). Conditions: 37° C. for 1 hour, read-out: IC50. Format: biochemical.
What is called IC50 is the concentration that gives 50% inhibition. On to `COCCCn1cc(C(C)C)c2cnc([C@@H](C)N(C(=O)[C@H]3CNCCO3)C3CC3)nc21` [Example 73], for which the half-maximal inhibitory concentration (IC50) was determined as 1.4 nM.

As for `COC(=O)NCCCc1cc(OC)cc([C@@H](C)N(C(=O)[C@H]2CNCCO2)C2CC2)n1` [Example 87], the concentration for half-maximal inhibition (IC50) came out at 4.8 nM.

Regarding `COC[C@@H]1CNC[C@H](C(=O)N(C2CC2)[C@H](C)c2nn(CCCNC(=O)OC)c3nc(C)ccc23)O1` [Example 1, methyl (3-{3-[(1R)-1-(cyclopropyl{[(2R,6S)-6-(methoxymethyl)morpholin-2-yl]carbonyl}amino)ethyl]-6-methyl-1H-pyrazolo[3,4-b]pyridin-1-yl}propyl)carbamate], the IC50 was found to be 0.3 nM.

For `CCc1cnc2c([C@@H](C)N(C(=O)[C@H]3CNCCO3)C3CC3)cn(CCCCOC)c2c1` [Example 35], the IC50 worked out at 0.4 nM.

Consider `COC(=O)NCCCc1cc(OC)cc([C@@H](C)N(C(=O)[C@H]2CNCCO2)C2CC2)c1` [Example 85], for which the 50% inhibitory concentration (IC50) amounted to 1 nM.

As for `COC(=O)NCCCn1nc([C@@H](C)N(C(=O)[C@H]2CNCCO2)C2CC2)c2ccc(C(C)C)nc21` [Example 90], the IC50 is 0.8 nM.

For the compound `COCCCCn1cc([C@@H](C)N(C(=O)[C@H]2CNCCO2)C2CC2)c2cnc(C)nc21` [Example 103], the IC50 turned out to be 2.1 nM.

As to `COC(=O)NCCCc1cc([C@@H](C)N(C(=O)[C@H]2CNCCO2)C2CC2)ccc1OC(C)C` [Example 107], the 50% inhibitory concentration (IC50) was 0.7 nM.

Consider `COCCCCn1cc([C@@H](C)N(C(=O)[C@H]2CNCCO2)C2CC2)c2nccc(OC)c21` [Example 52], for which the IC50 came out at 1.8 nM.

Consider `COCc1ccc([C@@H](C)N(C(=O)[C@H]2CNCCO2)C2CC2)cc1CCCNC(=O)OC` [Example 96], for which the IC50 is 0.8 nM.

Consider `COC(=O)NCCCn1cc([C@@H](C)N(C(=O)[C@H]2CNCCO2)C2CC2)c2cc(F)cnc21` [Example 75], for which the IC50 came out at 0.3 nM.

Turning to `COCCCCn1cc([C@H](C)N(C(=O)[C@H]2CNCCO2)C2CC2)c2nccc(OC)c21` [Example 51], the half-inhibitory concentration (IC50) turned out to be 8.8 nM.

`COC(=O)NCCCn1nc([C@@H](C)N(C(=O)[C@H]2CNCCO2)C2CC2)c2ncc(C)cc21` [Example 70]: the IC50 was determined as 1 nM.

On to `COC(=O)NCCCn1nc([C@@H](C)N(C(=O)[C@H]2CNCCO2)C2CC2)c2ccc(C(F)(F)F)nc21` [Example 72], for which the IC50 is 0.7 nM.

As for `COCCCCc1cc(C(C)N(C(=O)[C@H]2CNCCO2)C2CC2)cnc1OC` (stereo partly drawn) [Example 25], the IC50 came out at 6.3 nM.

With `COCCCCn1cc([C@@H](C)N(C(=O)[C@H]2CNCCO2)C2CC2)c2nccnc21` [Example 80], the IC50 is 5.7 nM.

Consider `COC(=O)NCCCc1cccc([C@@H](C)N(C(=O)[C@H]2CNCCO2)C2CC2)c1` [Example 61], for which the half-inhibitory concentration (IC50) is 4 nM.

Still in this test, the particulars now being: 50% inhibitory concentration (IC50) against human renin, 37° C. for 1 hour.
`COC[C@@H]1CNC[C@H](C(=O)N(C2CC2)[C@H](C)c2cc(CCCNC(=O)OC)n(C3CCOCC3)n2)O1` [Example 303]: the IC50 was 0.8 nM.

Take `COC(=O)NCCCc1nc([C@@H](C)N(C(=O)[C@H]2CNCCO2)C2CC2)sc1-c1ccccc1C(=O)OC` [Example 414]: the half-inhibitory concentration (IC50) came to 2.8 nM.

In the case of `COC[C@H]1CO[C@@H](C(=O)N(C2CC2)[C@H](C)c2cn(CCCNC(=O)OC)c(-c3ccc(F)cc3)n2)CN1` [Example 279], the concentration for half-maximal inhibition (IC50) came to 0.5 nM.

Consider `COC(=O)NCCCn1cc([C@H](C)N(C(=O)[C@H]2CNC[C@@H](COCc3ccccc3)O2)C2CC2)nc1C1CCOCC1` [Example 339], for which the half-inhibitory concentration (IC50) came to 0.4 nM.

As for `COC(=O)NCCCc1cc([C@@H](C)N(C(=O)[C@H]2CN[C@@H](C)CO2)C2CC2)cc(OC)n1` [Example 266], the concentration for half-maximal inhibition (IC50) stood at 2.7 nM.

`COC(=O)NCCCc1nc([C@@H](C)N(C(=O)[C@H]2CNCCO2)C2CC2)sc1-c1ccccc1` [Example 218]: the half-maximal inhibitory concentration (IC50) is 1.1 nM.

Turning to `CCc1nc([C@H](C)N(C(=O)[C@H]2CN[C@@H](C)CO2)C2CC2)cc2c1ccn2CCCOC` [Example 397], the IC50 was determined as 1.3 nM.

`CCOc1ncc(C(C)N(C(=O)[C@H]2CNC[C@@H](C)O2)C2CC2)nc1CCCNC(=O)OC` (stereo partly drawn) [Example 395]: the half-maximal inhibitory concentration (IC50) is 3.5 nM.

For `COC(=O)NCCCn1nc([C@H](C)N(C(=O)[C@H]2CNCCO2)C2CC2)cc1OC(C)C` [Example 326], the IC50 worked out at 0.4 nM.

For the compound `COC(=O)NCCCc1nc([C@@H](C)N(C(=O)[C@H]2CNCCO2)C2CC2)cnc1O[C@H]1CCOC1` [Example 424], the IC50 came to 5 nM.

For `COC(=O)NCCCn1nc([C@@H](C)N(C(=O)[C@H]2CNCCO2)C2CC2)cc1-c1cccc(C)n1` [Example 176], the IC50 was 0.4 nM.

For `COC(=O)NCCCc1cc(C(C)N(C(=O)[C@H]2CNC[C@@H](C)O2)C2CC2)nn1-c1ccccc1C(F)(F)F` (stereo partly drawn) [Example 350], the IC50 is 1.9 nM.

Consider `CCOc1cc([C@@H](C)N(C(=O)[C@H]2CNCCO2)C2CC2)cc(CCCNC(=O)OC)n1` [Example 237], for which the half-inhibitory concentration (IC50) amounted to 0.5 nM.

As for `COC(=O)NCCCn1nc([C@@H](C)N(C(=O)[C@H]2CNCCO2)C2CC2)nc1-c1ccccc1C` [Example 248], the IC50 was found to be 0.9 nM.

Turning to `COCCCCn1cc([C@@H](C)N(C(=O)[C@H]2CNCCO2)C2CC2)c2nccc(COC)c21` [Example 115], the IC50 was 1.8 nM.

Turning to `CCc1nc([C@@H](C)N(C(=O)[C@H]2CNCCO2)C2CC2)cc2c1c(F)cn2CCCOC` [Example 155], the half-inhibitory concentration (IC50) amounted to 0.8 nM.

On to `COC(=O)NCCCc1cc([C@@H](C)N(C(=O)[C@H]2CNC[C@@H](C)O2)C2CC2)cc(C2CC2)n1` [Example 342], for which the IC50 is 0.4 nM.

As to `C[C@@H]1CNC[C@H](C(=O)N(C2CC2)[C@H](C)c2cc(Cc3ccccc3)c(-c3ccccc3-c3nnn[nH]3)s2)O1` [Example 296], the IC50 was determined as 7 nM.

With `COC[C@H]1CO[C@@H](C(=O)N(C2CC2)[C@H](C)c2cn(CCCNC(=O)OC)c(C3CCCCC3)n2)CN1` [Example 289], the IC50 was found to be 0.5 nM.

As for `COc1ccc2nc([C@@H](C)N(C(=O)[C@H]3CNCCO3)C3CC3)cc(CCCNC=O)c2c1` [Example 157], the concentration for half-maximal inhibition (IC50) was 3.4 nM.

Turning to `COCCCOc1cc([C@@H](C)N(C(=O)[C@H]2CNCCO2)C2CC2)nn1-c1ccccc1` [Example 361], the half-maximal inhibitory concentration (IC50) was determined as 0.8 nM.

`COC(=O)NCCCn1cc([C@@H](C)N(C(=O)[C@H]2CNCCO2)C2CC2)nc1-c1cccc(C)c1` [Example 178]: the IC50 amounted to 0.3 nM.

Turning to `COC(=O)NCCCc1nc([C@@H](C)N(C(=O)[C@H]2CNCCO2)C2CC2)sc1-c1cnn(C)c1` [Example 413], the concentration for half-maximal inhibition (IC50) worked out at 2 nM.

As for `COC(=O)NCCCc1cc([C@H](C)N(C(=O)[C@H]2CNC[C@@H](CC#N)O2)C2CC2)cc(OC)n1` [Example 316], the 50% inhibitory concentration (IC50) stood at 1.4 nM.

Take `COC(=O)NCCCc1sc([C@H](C)N(C(=O)[C@H]2CNCCO2)C2CC2)cc1Br` [Example 437]: the IC50 came out at 2.7 nM.

Turning to `COC(=O)NCCCc1cc(C(C)N(C(=O)[C@H]2CNCCO2)C2CC2)sc1-c1ccc(N)nc1` (stereo partly drawn) [Example 425], the half-inhibitory concentration (IC50) turned out to be 8.8 nM.

As for `COC(=O)NCCCn1nc([C@@H](C)N(C(=O)[C@H]2CNCCO2)C2CC2)cc1-c1ccccc1` [Example 159], the IC50 was 0.2 nM.

`COC(=O)NCCCc1cc([C@@H](C)N(C(=O)[C@H]2CNCCO2)C2CC2)sc1C(F)(F)F` [Example 246]: the half-inhibitory concentration (IC50) worked out at 0.4 nM.

For `COC(=O)NCCCc1cc([C@H](C)N(C(=O)[C@H]2CNC[C@@H](CN(C)C)O2)C2CC2)cc(OC)n1` [Example 321], the IC50 worked out at 5.6 nM.

For `COC(=O)NCCCc1sc([C@@H](C)N(C(=O)[C@H]2CNCCO2)C2CC2)cc1-c1cnc(N)nc1` [Example 432], the half-maximal inhibitory concentration (IC50) came to 3.3 nM.

`COC(=O)NCCCn1cc([C@@H](C)N(C(=O)[C@H]2CNC[C@@H](C)O2)C2CC2)nc1C(C)C` [Example 245]: the 50% inhibitory concentration (IC50) amounted to 0.3 nM.

`COC(=O)NCCCn1nc([C@@H](C)N(C(=O)[C@H]2CNC[C@@H](C(C)(C)O)O2)C2CC2)c2ccc(C)nc21` [Example 293]: the IC50 was found to be 7.7 nM.

As to `COC[C@H]1CO[C@@H](C(=O)N(C2CC2)[C@@H](C)c2cc(OC(C)C)n(CCCNC(=O)OC)n2)CN1` [Example 331], the half-inhibitory concentration (IC50) was found to be 2.3 nM.

Consider `COC[C@@H]1CNC[C@H](C(=O)N(C2CC2)[C@H](C)c2cn(CCCNC(=O)OC)c(C3CCCCC3)n2)O1` [Example 290], for which the IC50 came out at 0.4 nM.

In the case of `COC[C@@H]1CNC[C@H](C(=O)N(C2CC2)[C@H](C)c2cc(OC)c3ccccc3n2)O1` [Example 201], the half-maximal inhibitory concentration (IC50) is 4.1 nM.

With `COC[C@H]1CO[C@@H](C(=O)N(C2CC2)[C@H](C)c2cc(CCCNC(=O)OC)n(-c3ccccc3)n2)CN1` [Example 283], the half-maximal inhibitory concentration (IC50) came to 0.9 nM.

Consider `COC(=O)NCCCn1cc([C@@H](C)N(C(=O)[C@H]2CNCCO2)C2CC2)nc1-c1cccc(F)c1` [Example 165], for which the IC50 is 0.6 nM.

For the compound `COC(=O)NCCCn1nc([C@@H](C)N(C(=O)[C@H]2CNC[C@@H](C(F)(F)F)O2)C2CC2)c2ccc(C)nc21` [Example 239], the IC50 came out at 3.1 nM.

Consider `COC(=O)NCCCc1cc([C@@H](C)N(C(=O)[C@H]2CNCCO2)C2CC2)nc2cc(F)c(F)cc12` [Example 143], for which the half-inhibitory concentration (IC50) stood at 1.5 nM.

With `COC(=O)NCCCn1nc([C@@H](C)N(C(=O)[C@H]2CNCCO2)C2CC2)c(C)c1-c1ncccc1F` [Example 234], the IC50 stood at 0.4 nM.

With `COC(=O)NCCCc1cc([C@@H](C)N(C(=O)[C@H]2CNC[C@@H](C)O2)C2CC2)nn1-c1cccc(C(F)(F)F)c1` [Example 349], the IC50 came to 1.1 nM.

As to `CCc1cc([C@H](C)N(C(=O)[C@H]2CNC[C@@H](COC)O2)C2CC2)cc(CCCNC(=O)OC)n1` [Example 329], the IC50 amounted to 0.8 nM.

Consider `COC(=O)NCCCc1cc([C@@H](C)N(C(=O)[C@H]2CNCCO2)C2CC2)sc1-c1ccccc1` [Example 197], for which the IC50 worked out at 0.2 nM.
